Results from patent US20040038855A1 (priority 1999, published 2004).

Biological target: human MCH1 receptor (Homo sapiens, UniProt Q99705)
Test: Intracellular calcium response to MCH in COS-7 cells transfected with MCH1 (fluo-3, FLIPR): antagonist potency
Assay type: cell-based
Design: expressed in transfected cells; host or cells: COS-7
Settings: read-out: Kb (nM) hMCH1
Source text: MCH1 antagonist compounds were identified by their ability to inhibit the MCH-elicited response. […]. From the IC50 values, the antagonist potency (Kb)was derived using the Cheng-Prussof correction (Lazareno and Birdsall, 1993). […]

Chain of human MCH1 receptor (Q99705 whole entry): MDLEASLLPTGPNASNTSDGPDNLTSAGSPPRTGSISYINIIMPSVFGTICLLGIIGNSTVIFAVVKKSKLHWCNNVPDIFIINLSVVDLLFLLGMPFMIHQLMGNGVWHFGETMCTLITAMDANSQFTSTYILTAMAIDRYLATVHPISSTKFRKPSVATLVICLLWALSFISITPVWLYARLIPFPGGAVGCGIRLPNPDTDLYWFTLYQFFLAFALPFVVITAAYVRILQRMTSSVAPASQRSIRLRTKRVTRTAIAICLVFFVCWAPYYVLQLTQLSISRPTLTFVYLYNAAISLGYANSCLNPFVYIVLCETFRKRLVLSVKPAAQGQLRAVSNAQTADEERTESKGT

COC(=O)C1=C(C)NC(=O)N(C(=O)NCCCN2CCC3(CC2)C(=O)CCc2ccccc23)C1c1ccc(F)c(F)c1 (stereo not shown) [Example 24]
Kb: 102 nM
